# Measured values from paper PMC8752837, “Structural basis of BAK activation in mitochondrial apoptosis initiation” (Nature Communications, 2022).
# Where two headings read alike, the source gives them in different places. Marks after values point to notes of the source that are not given here.
# Columns and labels:
# Human BAK-∆TM-His6 (BAK) = target: T1, Human BAK-∆TM-His6 (BAK) (Homo sapiens, UniProt Q16611); assay: Liposome permeabilization assay (ANTS/DPX dye release from LUVs): activation of WT BAK by BH3 peptides;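 for AUC for Experiment-2 (Mean): traces normalized between buffer minimum and 3% CHAPS maximum fluorescence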;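 for AUC for Experiment-3 (Mean): traces normalized between buffer minimum and 3% CHAPS maximum fluorescence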; assay type: biochemical; design: AUC for Experiment-2 (Mean) / AUC for Experiment-3 (Mean) / AUC for Experiment-1 (Mean):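 traces normalized between buffer minimum and 3% CHAPS maximum fluorescence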; details: for AUC for Experiment-1 (Mean) / AUC for Experiment-2 (Mean) / AUC for Experiment-3 (Mean): AUC 0-88 mins of liposome permeabilization; for AUC for Experiment-1 (Mean): Experiment-1, mean of N replicates; for AUC for Experiment-2 (Mean): Experiment-2, mean of N replicates; for AUC for Experiment-3 (Mean): Experiment-3, mean of N replicates; for EC50: Fig. 4e, AUC vs peptide dose (Suppl. Fig. 6b), n = 2 experiments each of n = 3 technical replicates, read-out: EC50 LP; for EC50 / direct BAK activation compared to WT BID BH3: 50 nM BAK; for direct BAK activation compared to WT BID BH3: liposome permeabilization, Fig. 4c, e
# T1 construct: C-terminus truncated recombinant human BAK containing C-terminal 6× histidine tag (MEAS-BAK); made in house; host or cells: E. coli T7 Express pLac I/Y
# T1 sequence (Q16611 1-186 limits assumed): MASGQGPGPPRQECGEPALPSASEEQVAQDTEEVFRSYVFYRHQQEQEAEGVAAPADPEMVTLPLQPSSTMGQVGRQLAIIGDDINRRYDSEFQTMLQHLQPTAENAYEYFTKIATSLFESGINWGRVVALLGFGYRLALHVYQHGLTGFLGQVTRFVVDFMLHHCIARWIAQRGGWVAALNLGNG
# Method: We performed liposome permeabilization assays as previously described[43]–[46]. […] We mixed the lipid film in ANTS/DPX solution by vortexing and sonication (~15 min) followed by extrusion through polycarbonate membrane of 2 μm pore size (Avanti Polar lipids) to generate homogenous large unilamellar vesicles (LUVs). We separated LUVs from free ANTS/DPX by S500 size exclusion chromatography and stored them at 4 °C in the dark. We prepared peptide and protein dilutions in 96-well black flat bottom plates (Costar) kept on ice. […] We quantified liposome permabilization by integrating area under curve (AUC) of normalized traces based on the Simpson’s equation, and analyzed that data in Excel and GraphPad Prism. AUC measurements reflect the kinetic and extent of liposome permeabilization and provide quantitative means for comparison between different experimental conditions (e.g., BAK mutants with gross or partial variation in activity).
# GST-BAK = target: T2, GST-BAK (Homo sapiens, UniProt Q16611); assay: Competitive fluorescence polarization assay (displacement of BID BH3 SAHB-F); assay type: binding
# T2 construct: made in house
# T2 sequence (Q16611 1-211): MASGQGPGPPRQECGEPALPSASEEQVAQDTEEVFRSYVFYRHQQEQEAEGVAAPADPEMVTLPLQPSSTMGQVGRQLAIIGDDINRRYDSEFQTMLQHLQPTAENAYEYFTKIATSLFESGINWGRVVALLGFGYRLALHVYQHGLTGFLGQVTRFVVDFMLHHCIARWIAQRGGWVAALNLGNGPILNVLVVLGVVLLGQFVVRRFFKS
# Description: We also tested the monosubstituted peptides in competitive fluorescence polarization (FP) binding assays, which measure displacement from GST-BAK of BID BH3 stabilized alpha helix of BCL-2 proteins (SAHB) C-terminally tagged with fluorescein and thus informs on peptide binding affinity.
# We carried out fluorescence polarization assays, measuring the displacement of the fluorescent peptide BID BH3 SAHB-F from GST-BAK, in 384-well Greiner black polystyrene plates with flat bottom (Sigma-Aldrich). Master mix consisted of 50 mM Tris-HCl pH 7.5, 50 mM KCl, 0.1 mg/mL BSA, 2 mM DTT, 0.005% Tween-20, 10 nM BID BH3 SAHB-F, and 1 µM GST-BAK. We pin transferred peptides using Biomek FX (Beckman Coulter Life Sciences, IN) to achieve final concentration of 500−0.2 µM in 20 µL final volume. We gently centrifuged plates to remove air bubbles for 1 min at 1000 rpm, and incubated them for 60 min at RT. […] Free peptide controls in each plate consisted of only BID BH3 SAHB-F and bound peptide controls containing BID BH3 SAHB-F + GST-BAK. We derived Z’-values using the equation [1 − 3(stdev^L + stdev^H)]/(average^H − average^L), where L is the free peptide control and H is the bound peptide control. […] We processed and visualized data using the software Robust Investigation of Screening Experiments (RISE) developed in house in the Pipeline Pilot platform (Accelrys, v.8.5.0). We performed at least three independent dose-response experiments for each peptide. We estimated IC50 values in RISE and GraphPad Prism v.8.0a.
# [1] = competitive FP, mean of the experiments (replicated 4-9 times), read-out: IC50 Mean
# [2] = displacement of 10 nM BID BH3 SAHB-fluorescein from 1 µM GST-BAK, peptide 500−0.2 µM, 60 min RT, mean ± SD, n = 9 experiments, read-out: IC50 FP
Molecule,AUC for Experiment-1 (Mean) (Human BAK-∆TM-His6 (BAK); 1 μM peptide + 50 nM BAK),AUC for Experiment-2 (Mean) (Human BAK-∆TM-His6 (BAK); 1 μM peptide + 50 nM BAK),AUC for Experiment-3 (Mean) (Human BAK-∆TM-His6 (BAK); 1 μM peptide + 50 nM BAK),AUC for Experiment-1 (Mean) (Human BAK-∆TM-His6 (BAK); 50 μM peptide + 50 nM BAK),AUC for Experiment-2 (Mean) (Human BAK-∆TM-His6 (BAK); 50 μM peptide + 50 nM BAK),AUC for Experiment-3 (Mean) (Human BAK-∆TM-His6 (BAK); 50 μM peptide + 50 nM BAK),EC50 (Human BAK-∆TM-His6 (BAK)),"IC50 (GST-BAK; competitive FP, Experiment-1)","IC50 (GST-BAK; competitive FP, Experiment-2)","IC50 (GST-BAK; competitive FP, Experiment-3)","IC50 (GST-BAK; competitive FP, Experiment-4)","IC50 (GST-BAK; competitive FP, Experiment-5)","IC50 (GST-BAK; competitive FP, Experiment-6)","IC50 (GST-BAK; competitive FP, Experiment-7)","IC50 (GST-BAK; competitive FP, Experiment-8)","IC50 (GST-BAK; competitive FP, Experiment-9)",IC50 (GST-BAK; [1]),direct BAK activation compared to WT BID BH3 (Human BAK-∆TM-His6 (BAK)),IC50 (GST-BAK; [2])
CC[C@H](C)[C@H](NC(=O)[C@H](CC(N)=O)NC(=O)[C@H](CCCNC(=N)N)NC(=O)[C@@H](NC(=O)[C@@H](NC(=O)[C@H](CC(=O)O)NC(=O)[C@H](CCC(=O)O)NC(C)=O)[C@@H](C)CC)[C@@H](C)CC)C(=O)N[C@@H](C)C(=O)N[C@@H](CCCNC(=N)N)C(=O)N[C@@H](Cc1c[nH]cn1)C(=O)N[C@@H](CC(C)C)C(=O)N[C@@H](C)C(=O)N[C@@H](CCC(N)=O)C(=O)N[C@H](C(=O)NCC(=O)N[C@@H](CC(=O)O)C(=O)N[C@@H](CO)C(=O)N[C@@H](CCSC)C(=O)N[C@@H](CC(=O)O)C(=O)N[C@@H](CCCNC(=N)N)C(=O)N[C@@H](CO)C(=O)N[C@@H](Cc1c[nH]c2ccccc12)C(N)=O)C(C)C [W(5)],15.613,13.293,17.537,10.056,8.1041,9.4463,110 ± 57.7 nM,10.88 µM,9.859 µM,9.959 µM,6.417 µM,8.231 µM,7.397 µM,10.36 µM,8.244 µM,7.774 µM,8.8 µM,–,–
Ac-EDIIRNIARHFAQVGDSMDRSI-NH2 [F(2)],10.629,6.9165,10.58,9.2417,6.0451,8.2141,290 ± 42.6 nM,–,–,–,–,–,–,–,–,–,–,–,–
Ac-EDIIRNIARHLAQFGDSMDRSI-NH2 [F(3)],18.713,17.421,16.388,17.267,18.39,17.889,110 ± 16.1 nM,–,–,–,–,–,–,–,–,–,–,gain in direct BAK activation compared to WT BID BH3,11.3 ± 3.9 µM
Ac-EDIIRNIARHLAQMGDSMDRSI-NH2 [M(3)],20.936,21.86,19.004,18.852,17.743,12.625,114 ± 22.5 nM,5.395 µM,4.243 µM,5.717 µM,4.044 µM,4.59 µM,4.39 µM,3.925 µM,4.319 µM,4.861 µM,4.6 µM,gain in direct BAK activation compared to WT BID BH3,–
Ac-EDIIRNIARHLAQVGDSFDRSI-NH2 [F(4)],9.5438,9.663,8.9802,10.729,10.153,6.338,229 ± 11.1 nM,–,–,–,–,–,–,–,–,–,–,less direct BAK activation compared to WT BID BH3,11.9 ± 3.7 µM
Ac-EDIIRNIARHLAQVGDSWDRSI-NH2 [W(4)],16.565,21.49,16.942,21.822,26.263,21.192,264 ± 9.1 nM,–,–,–,–,–,–,–,–,–,–,gain in direct BAK activation compared to WT BID BH3,11.5 ± 7.5 µM
Ac-EDIIRNIARHLAQVGDSYDRSI-NH2 [Y(4)],22.669,26.226,23.05,21.941,27.175,24.539,213 ± 8.2 nM,–,–,–,–,–,–,–,–,–,–,gain in direct BAK activation compared to WT BID BH3,6.9 ± 5 µM
Ac-EDIIRNIARHLAQWGDSMDRSI-NH2 [W(3)],14.061,9.0873,8.9347,8.5044,6.7192,7.8089,163 ± 5.3 nM,7.12 µM,5.471 µM,7.795 µM,5.632 µM,5.62 µM,7.05 µM,5.661 µM,7.109 µM,8.02 µM,6.6 µM,less direct BAK activation compared to WT BID BH3,–
Ac-EDIIRNIARHLAQYGDSMDRSI-NH2 [Y(3)],14.1,10.652,12.187,18.672,10.496,13.717,372 ± 116 nM,–,–,–,–,–,–,–,–,–,–,–,6.2 ± 1.5 µM
Ac-EDIIRNIARHMAQVGDSMDRSI-NH2 [M(2)],8.056,3.548,5.055,8.1746,3.897,7.008,366 ± 89.2 nM,–,–,–,–,–,–,–,–,–,–,–,–
Ac-EDIIRNIARHWAQVGDSMDRSI-NH2 [W(2)],4.9093,3.613,3.7546,2.3973,4.6314,0.7562*,1080 ± 453 nM,–,–,–,–,–,–,–,–,–,–,less direct BAK activation compared to WT BID BH3,–
Ac-EDIIRNIARHYAQVGDSMDRSI-NH2 [Y(2)],4.2367,5.3994,3.7484,8.0372,6.4388,4.7986,1210 ± 696 nM,–,–,–,–,–,–,–,–,–,–,less direct BAK activation compared to WT BID BH3,–
Ac-EDIIRNWARHLAQVGDSMDRSI-NH2 [W(1)],5.265,7.491,5.218,7.873,8.991,6.529,1700 ± 446 nM,–,–,–,–,–,–,–,–,–,–,less direct BAK activation compared to WT BID BH3,–
